Structures can show the parent of a compound that is named as a salt.

One data set has as its system P. falciparum TM4/8.2 (wild type). Briefly: microbe, parasite or virus in culture. In kind it is cell-based, Plasmodium falciparum. As to conditions: Plasmodium falciparum; in vitro, wild-type strain TM4/8.2; read-out: IC50 P. falciparum TM4/8.2 (WT). An excerpt:
(§1) In Vitro Antimalarial Activites Against P. falciparum and Cytotoxicity Towards Mammalian Cells (Vero Cells)
With `CCc1nc(N)nc(N)c1-c1ccc(Cl)cc1` [Pyrimethamine, pyrimethamine, reference compound], the IC50 amounted to 0.058 ± 0.03 µM.

The next data set deals with P. falciparum V1/S (N51I + C59R + S108 + I164L). Briefly: microbe, parasite or virus in culture. In kind it is cell-based, Plasmodium falciparum. As to conditions: Plasmodium falciparum; in vitro, quadruple mutant strain V1/S; read-out: IC50 P. falciparum V1/S.
From the text: as §1
`CCc1nc(N)nc(N)c1-c1ccc(Cl)cc1` [Pyrimethamine, pyrimethamine, reference compound]: the IC50 is more than 100 µM.

System in the next data set: not listed separately
Briefly: in vitro. As to conditions: African green monkey.
From the text: as §1
As for `CCc1nc(N)nc(N)c1-c1ccc(Cl)cc1` [Pyrimethamine, pyrimethamine, reference compound], the IC50 was more than 10 µM.

System in another data set: not given
Assay: not given
Details: not given
As to `CCc1nc(N)nc(N)c1OCc1cc(-c2ccc(Cl)cc2)no1` (as salt: hydrochloride) [Compound 35], the melting point was 230 to 231.5 °C.

`CCc1nc(N)nc(N)c1OCc1csc(-c2ccc(OC)cc2)n1` (as salt: hydrochloride) [Compound 68] registered a melting point of 228 to 229 °C.

In turn, `CCc1nc(N)nc(N)c1OCc1csc(-c2cccc([N+](=O)[O-])c2)n1` (as salt: hydrochloride) [Compound 62] registered a melting point of 235 to 236.5 °C.

`CCc1nc(N)nc(N)c1OCc1csc(-c2ccc(C(=O)OC)cc2)n1` (as salt: hydrochloride) [Compound 74] returned a melting point of 217 to 219 °C.

Regarding `CCc1nc(N)nc(N)c1OCCc1cn(Cc2ccc(O)cc2)nn1` (as salt: hydrochloride) [Compound 30], the melting point was in the range of 213 to 215 °C.

On to `CCc1nc(N)nc(N)c1OCc1csc(-c2ccccc2)n1` (as salt: hydrochloride) [Compound 60], for which the melting point is 220 to 222 °C.

The compound `CCc1nc(N)nc(N)c1OCCc1cn(-c2ccc(C(=O)O)cc2)nn1` (as salt: hydrochloride) [Compound 22] yielded a melting point of 270 to 271 °C.

`CCc1nc(N)nc(N)c1OCc1cn(-c2ccc(C(=O)O)cc2)nn1` (as salt: hydrochloride) [Compound 19] came in with a melting point of 270.8 to 272 °C.

Take `CCc1nc(N)nc(N)c1OCCCc1cc(-c2cccc(C(=O)OC)c2)no1` (as salt: hydrochloride) [Compound 48]: the melting point is 188 to 189.5 °C.

`CCc1nc(N)nc(N)c1-c1cn(CCCOc2ccc(Cl)cc2)nn1` (as salt: hydrochloride) [Compound 11] registered a melting point of 222.5 to 223.5 °C.

Compound `CCc1nc(N)nc(N)c1OCc1cn(Cc2cccc(C(=O)O)c2)nn1` (as salt: hydrochloride) [Compound 26] returned a melting point of 170 to 171 °C.

Turning to `CCc1nc(N)nc(N)c1OCc1csc(-c2cccc(C(=O)OC)c2)n1` (as salt: hydrochloride) [Compound 65], the melting point lay within 224.5 to 226.5 °C.

For the compound `CCc1nc(N)nc(N)c1OCc1csc(-c2ccc(C(=O)O)cc2)n1` (as salt: hydrochloride) [Compound 75], the melting point lay in the range of 213 to 214 °C.

Take `CCc1nc(N)nc(N)c1OCc1cc(-c2cccc([N+](=O)[O-])c2)no1` (as salt: hydrochloride) [Compound 39]: the melting point is 179.5 to 181.5 °C.

Compound `CCc1nc(N)nc(N)c1OCc1cc(-c2cccc(C(F)(F)F)c2)no1` (as salt: hydrochloride) [Compound 37] gave a melting point of 224 to 225.5 °C.

The compound `CCc1nc(N)nc(N)c1OCc1cc(-c2ccccc2)no1` (as salt: hydrochloride) [Compound 33] registered a melting point of 221.5 to 222.5 °C.

As to `CCc1nc(N)nc(N)c1OCc1cc(-c2ccc(Br)cc2)no1` (as salt: hydrochloride) [Compound 36], the melting point is 238 to 239.5 °C.

Turning to `CCc1nc(N)nc(N)c1OCc1csc(-c2ccc(Br)cc2)n1` (as salt: hydrochloride) [Compound 71], the melting point fell in the range of 236 to 238 °C.

In the case of `CCc1nc(N)nc(N)c1OCc1cn(-c2ccccc2)nn1` (as salt: hydrochloride) [Compound 13], the melting point was 212.5 to 213.5 °C.

In turn, `CCc1nc(N)nc(N)c1OCc1csc(-c2ccc(OCC(=O)O)cc2)n1` (as salt: hydrochloride) (hydrate or solvate) [Compound 73] came in with a melting point of 203.5 to 205.5 °C.

For `CCc1nc(N)nc(N)c1OCc1coc(-c2cccc(C)c2)n1` (as salt: hydrochloride) [Compound 51], the melting point lay in the range of 225 to 226 °C.

`CCc1nc(N)nc(N)c1OCc1cc(-c2ccc(C(F)(F)F)cc2)no1` (as salt: hydrochloride) [Compound 41] displayed a melting point of 173 to 174.5 °C.

In turn, `CCc1nc(N)nc(N)c1OCc1cn(-c2cccc(C(=O)OC)c2)nn1` (as salt: hydrochloride) [Compound 15] gave a melting point of 211 to 212 °C.

For the compound `CCc1nc(N)nc(N)c1-c1cn(Cc2ccc(C(=O)O)cc2)nn1` (as salt: hydrochloride) [Compound 5], the melting point is 270 to 272 °C.

In turn, `CCc1nc(N)nc(N)c1OCc1cn(-c2cccc([N+](=O)[O-])c2)nn1` (as salt: hydrochloride) [Compound 14] displayed a melting point of 236 to 237 °C.

On to `CCc1nc(N)nc(N)c1OCCCc1cn(-c2cccc(C(=O)O)c2)nn1` (as salt: hydrochloride) [Compound 23], for which the melting point was in the range of 230.5 to 231.5 °C.

In turn, `CCc1nc(N)nc(N)c1-c1cn(CCOc2ccc(C(=O)OC)cc2)nn1` (as salt: hydrochloride) [Compound 10] gave a melting point of 225 to 226 °C.

On to `CCc1nc(N)nc(N)c1OCCc1cn(-c2ccc(C(=O)OC)cc2)nn1` (as salt: hydrochloride) [Compound 21], for which the melting point lay in the range of 190 to 192 °C.

For `CCc1nc(N)nc(N)c1OCCCc1cn(-c2ccc(C(=O)OC)cc2)nn1` (as salt: hydrochloride) [Compound 24], the melting point was 208 to 209.5 °C.

Consider `CCc1nc(N)nc(N)c1OCc1csc(-c2ccc(F)cc2)n1` (as salt: hydrochloride) [Compound 69], for which the melting point was 226 to 227 °C.

Compound `CCc1nc(N)nc(N)c1OCCc1coc(-c2ccc(C(=O)O)cc2)n1` (as salt: hydrochloride) [Compound 59] came in with a melting point of 330 to 332 °C.

On to `CCc1nc(N)nc(N)c1OCc1cn(-c2ccc(C(=O)OC)cc2)nn1` (as salt: hydrochloride) [Compound 18], for which the melting point lay within 197.5 to 199 °C.

On to `CCc1nc(N)nc(N)c1OCc1cc(-c2ccc(C(=O)O)cc2)no1` (as salt: hydrochloride) [Compound 44], for which the melting point fell in the range of 242 to 244 °C.

`CCc1nc(N)nc(N)c1OCc1cc(-c2ccc([N+](=O)[O-])cc2)no1` (as salt: hydrochloride) [Compound 43] showed a melting point of 216 to 218 °C.

In turn, `CCc1nc(N)nc(N)c1OCc1cn(Cc2cc(F)c(O)c(F)c2)nn1` (as salt: hydrochloride) [Compound 27] had a melting point of 224.7 to 226 °C.

The compound `CCc1nc(N)nc(N)c1OCCCc1cc(-c2cccc(C(F)(F)F)c2)no1` (as salt: hydrochloride) [Compound 46] had a melting point of 216.5 to 218 °C.

`CCc1nc(N)nc(N)c1OCc1coc(-c2cccc(OCC(=O)OCc3ccccc3)c2)n1` (as salt: hydrochloride) (hydrate or solvate) [Compound 53] returned a melting point of 163.5 to 164.5 °C.

In the case of `CCc1nc(N)nc(N)c1OCc1csc(-c2cccc(OCC(=O)OCc3ccccc3)c2)n1` (as salt: hydrochloride) (hydrate or solvate) [Compound 63], the melting point lay within 175 to 177 °C.

`CCc1nc(N)nc(N)c1OCCCc1cc(-c2ccc(Cl)cc2)no1` (as salt: hydrochloride) [Compound 45] showed a melting point of 231.5 to 232.5 °C.

`CCc1nc(N)nc(N)c1OCCCc1cc(-c2cccc(C#N)c2)no1` (as salt: hydrochloride) [Compound 47] had a melting point of 252 to 253 °C.

Compound `CCc1nc(N)nc(N)c1OCc1coc(-c2ccc(OCC(=O)OCc3ccccc3)cc2)n1` (as salt: hydrochloride) (hydrate or solvate) [Compound 56] registered a melting point of 191.5 to 192.5 °C.

In turn, `CCc1nc(N)nc(N)c1OCc1cc(-c2ccc(F)cc2)no1` (as salt: hydrochloride) [Compound 34] returned a melting point of 231 to 232 °C.

In turn, `CCc1nc(N)nc(N)c1OCc1cn(-c2ccc([N+](=O)[O-])cc2)nn1` (as salt: hydrochloride) [Compound 17] yielded a melting point of 209 to 210.5 °C.

`CCc1nc(N)nc(N)c1OCCc1cn(-c2cccc(C(=O)O)c2)nn1` (as salt: hydrochloride) [Compound 20] came in with a melting point of 246 to 247 °C.

`CCc1nc(N)nc(N)c1OCc1csc(-c2cccc(OCC(=O)O)c2)n1` (as salt: hydrochloride) (hydrate or solvate) [Compound 64] returned a melting point of 191 to 193 °C.

For `CCc1nc(N)nc(N)c1OCCCc1cn(Cc2ccc(C(=O)O)cc2)nn1` (as salt: hydrochloride) [Compound 32], the melting point was in the range of 211 to 212.5 °C.

For `CCc1nc(N)nc(N)c1OCCCc1cn(-c2ccc(C(=O)O)cc2)nn1` (as salt: hydrochloride) [Compound 25], the melting point is 239.5 to 241.5 °C.

As for `CCc1nc(N)nc(N)c1-c1cn(CCCOc2ccc(C(=O)OC)cc2)nn1` (as salt: hydrochloride) [Compound 12], the melting point was in the range of 211 to 212 °C.

Consider `CCc1nc(N)nc(N)c1-c1cn(CCc2ccccc2)nn1` (as salt: hydrochloride) [Compound 7], for which the melting point is 203 to 204.5 °C.

For `CCc1nc(N)nc(N)c1OCc1cc(-c2ccc(OC)cc2)no1` (as salt: hydrochloride) [Compound 42], the melting point is 214 to 216 °C.

On to `CCc1nc(N)nc(N)c1OCc1coc(-c2ccc(Cl)cc2)n1` (as salt: hydrochloride) [Compound 55], for which the melting point is 239 to 240 °C.

In turn, `CCc1nc(N)nc(N)c1OCc1cn(Cc2ccc(C(=O)O)cc2)nn1` (as salt: hydrochloride) [Compound 29] displayed a melting point of 223.8 to 224.8 °C.

The values are drawn from patent US11028072B2, “2,4-diamino-6-ethylpyrimidine derivatives with antimalarial activities against Plasmodium falciparum” (National Science and Technology Development Agency, priority 2015, dated 2021).
